We go through one compound from PMC8443647, “Hybrid derivative of cathelicidin and human beta defensin-2 against Gram-positive bacteria: A novel approach for the treatment of bacterial keratitis” (Scientific Reports, 2021).

Broadly, the CC50 is the concentration that lowers cell viability or growth by half. A lower CC50 goes with harm at low concentration.

Values after ≈ are worked out from the molar mass of the structure shown. Peptide text beside a SMILES is read from it.

One data set in a line: Hemolytic assay. Format: cell-based. The conditions noted are these: human, Hmax (%): percentage of hemolysis at 200 µg/ml. As to the method:
Ethical approval was obtained from the Local Research Ethics Committee of University of Nottingham prior to the experiment (Ref: 176-1812). The experiment was conducted in accordance with the relevant guidelines and regulations. Hemolytic assay was performed according to the previously established protocol. Briefly, 5 ml of fresh human blood was collected from healthy participants with written informed consent, in an EDTA tube and centrifuged for 10 min at 1300g at 10 °C for separation of plasma. The remaining erythrocytes were rinsed and centrifuged further three times in Ca^2+/Mg^2+ free Dulbecco’s phosphate-buffered saline (DPBS). Subsequently, erythrocytes were diluted to 8% v/v in DPBS and incubated with 100 μl of treatment, positive control (1% Triton X-100) and negative control (DPBS), all in 1:1 ratio, for 1 h (final erythrocytes concentration = 4% v/v). After 1 h of incubation, the plate was centrifuged at 500×g for 5 min and 100 μl of supernatant of each well was transferred into a 96-well plate for measurement at OD540. Hemolysis (%) was calculated as [(Itreatment – INC)/(IPC – INC)] × 100.

In a further data set the test system is S. aureus ATCC 29213. The format is cell-based, Staphylococcus aureus. The following applies: ATCC 29213, 24 h. The source says: (§1) A range of Gram-positive and Gram-negative laboratory- and clinical-strain bacteria were used for the experiments. These included laboratory-strain methicillin-sensitive S. aureus (MSSA; including SH1000 and ATCC SA29213), laboratory-strain MRSA (ATCC MRSA43300), clinical-strain MRSA (MRSA-OS; an IK isolate), laboratory-strain methicillin-sensitive Staphylococcus epidermidis (MSSE; ATCC SE12228), laboratory invasive-strain P. aeruginosa (PAO1-L), and clinical cytotoxic-strain P. aeruginosa (PA-OS; an IK isolate).
(§2) In vitro antimicrobial efficacy of the antibiotics and designed HDPs was determined using an established MIC assay with broth microdilution method approved by the Clinical and Laboratory Standards Institute (CLSI)[64]. Briefly, the microorganisms were cultured on Tryptone Soya Agar (TSA) and incubated overnight for 18–21 h at 37 °C. Bacterial inoculums were subsequently prepared using the direct colony suspension method. Three to five bacterial colonies were obtained from the agar plate and inoculated into an Eppendorf tube containing 1 ml of cation-adjusted Muller-Hinton broth (caMHB), consisting of 20–25 mg/L calcium ions (Ca^2+) and 10–12.5 mg/L magnesium ions (Mg^2+). The bacterial suspension was adjusted to achieve a turbidity equivalent to 0.1 OD600 or 0.5 MacFarland, containing ~ 1.5 × 10^8 colony-forming unit (CFU)/ml, which was then further diluted in 1:150 in caMHB to reach a final bacterial concentration of ~ 1 × 10^6 colony forming units (CFU)/ml. Each treatment (peptide or antibiotic) was prepared in 1:2 serial dilution in 96-well polypropylene microplates (with a final treatment volume of 50 μl per well), followed by the addition of 50 μl of 1 × 10^6 CFU/ml bacteria into each well (with a final bacterial concentration of 5 × 10^5 CFU/ml).

In the next data set the test system is MRSA ATCC 43300. The format is cell-based, Staphylococcus aureus. The following applies: ATCC 43300, 24 h.
Source text: as §1, §2

Another data set concerns MRSA. Format: cell-based, Staphylococcus aureus.
Source text: as §1, §2

In another data set the test system is MSSA. Format: cell-based, Staphylococcus aureus.
Source text: as §1, §2

A further data set in a line: in vitro. The format is cell-based, human. The conditions noted are these: human. As to the method: Cell viability and cytotoxicity of antibiotics and peptides were determined against human corneal epithelial cells (HCE-2, CRL-11135, ATCC, Manassas, Virginia, USA) using cell-counting-kit-8 (CCK-8) assay (Sigma Aldrich, Merck Life Science UK Limited, Dorset, UK) and lactate dehydrogenase (LDH) assay (ThermoFisher Scientific, UK), respectively, as per manufacturer’s guidelines. HCE-2 cells were cultured and seeded into a 96-well plate at a density of 7.5 × 10^3 cells/well and allowed to attach overnight and grew to 80–90% confluency in keratinocyte serum free medium (KSFM) supplemented with human recombinant epidermal growth factor, bovine pituitary extract, hydrocortisone, and insulin. Once the confluency reached 80–90%, the cells were incubated with treatment for 3 h before OD450 measurement was taken using BMG Clariostar microplate reader (BMG Labtech Ltd., Aylesbury, UK). Appropriate controls were used, including 0.1% Triton X-100 as positive control and KSFM as negative control. Cell viability was calculated using the following formula: [([…]) × 100; I = intensity] and cytotoxicity was calculated using the following formula: [((Itreatment – INC)/(IPC – INC)) × 100].

For a further data set, the system named is P. aeruginosa PA-OS. The data set is described as follows: microbe, parasite or virus in culture. The conditions noted are these: PA-OS, 24 h. The format is cell-based. The gist of the method:
(§3)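 MIC was determined by CLSI broth microdilution in cation-adjusted Mueller-Hinton broth. Peptides or antibiotics were tested in 1:2 serial dilutions against a final inoculum of 5 × 10^5 CFU/ml, prepared by direct colony suspension from overnight TSA cultures grown at 37 °C.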

For data set [1], the system named is S. epidermidis ATCC 12228. Format: cell-based, Staphylococcus epidermidis. The conditions noted are these: ATCC 12228, 24 h.
Source text: as §1
In vitro antimicrobial efficacy of the antibiotics and designed HDPs was determined using an established MIC assay with broth microdilution method approved by the Clinical and Laboratory Standards Institute (CLSI)[64]. Briefly, the microorganisms were cultured on Tryptone Soya Agar (TSA) and incubated overnight for 18–21 h at 37 °C. Bacterial inoculums were subsequently prepared using the direct colony suspension method. Three to five bacterial colonies were obtained from the agar plate and inoculated into an Eppendorf tube containing 1 ml of cation-adjusted Muller-Hinton broth (caMHB), consisting of 20–25 mg/L calcium ions (Ca^2+) and 10–12.5 mg/L magnesium ions (Mg^2+). […]

In another data set the test system is corneal epithelial wound. The conditions noted are these: mouse, in vivo. How it is done: The in vivo studies were conducted in two stages, namely the corneal wound healing study (for safety) and BK study (for efficacy), based on previously established protocols[54],[65]. […] The mice were maintained and treated in compliance with the Guide for the Care and Use of Laboratory Animals (National Research Council) and the ARVO statement for the Use of Animals in Ophthalmic and Vision Research. […]
In vivo safety of CaD23 (in 0.03%, 0.05% or 0.1%), and PBS (negative control) was first determined in a mouse corneal epithelial wound healing model. In the absence of in vivo pilot data of our designed HDPs, the sample size was calculated based on a previous study. […]
All mice were randomly allocated to each of the four treatment groups (n = 4 mice/group). […] Corneal epithelial defect was assessed using a cobalt-blue filter-equipped slit-lamp biomicroscopy and photography with staining with topical sodium fluorescein 1% at baseline (immediately post-debridement) and daily up to 3 days post-treatment. Fluorescein-stained images of the corneal wound defect were analyzed using ImageJ software (https://imagej.nih.gov/ij/)[68]. The main outcome measure was the wound size at the end of day 1, 2 and 3 [expressed as % of the original wound size in mean and standard deviation (SD)]. […]

The subject of the next data set is MRSA-OS. The data set is described as follows: microbe, parasite or virus in culture. The format is cell-based, Staphylococcus aureus. The following applies: -OS, 24 h. The gist of the method: as §3

In “Hemolytic assay”, `CC[C@H](C)[C@H](NC(=O)[C@H](CCCNC(=N)N)NC(=O)[C@H](CCC(N)=O)NC(=O)[C@@H](NC(=O)[C@@H](NC(=O)[C@H](CCCNC(=N)N)NC(=O)[C@@H](N)CCCCN)[C@@H](C)CC)C(C)C)C(=O)N[C@@H](CCCCN)C(=O)N[C@@H](CC(=O)O)C(=O)N[C@@H](Cc1c[nH]c2ccccc12)C(=O)N[C@@H](CC(C)C)C(=O)N[C@@H](CCCNC(=N)N)C(=O)N[C@@H](CCCCN)C(=O)N[C@@H](CC(C)C)C(=O)N[C@@H](CS)C(=O)N[C@@H](CCCCN)C(=O)N[C@@H](CCCCN)C(=O)N[C@@H](Cc1c[nH]c2ccccc12)C(=O)O` [CaD23, KRIVQRIKDW LRKLCKKW] (H-KRIVQRIKDWLRKLCKKW-OH; N-terminus and C-terminus assumed) registered a hemolysis at 1 h, 200 µg/ml of less than 10%. The MIC against S. aureus ATCC 29213 is 50 µg/mL (≈ 20.9 µM); in the data set on MRSA ATCC 43300 it was 100 µg/mL (≈ 41.7 µM); with MRSA, 25 µg/mL (≈ 10.4 µM); in the data set on MSSA, 12.5 to 25.0 µg/mL; in the data set with P. aeruginosa PA-OS, 50 µg/mL (≈ 20.9 µM); in data set [1] it was 5.2 µM (≈ 12.5 µg/mL). In the data set on MRSA-OS, this compound gave an MIC of 100 µg/mL (≈ 41.7 µM). The same compound registered a CC50 at 3 h in the data set “in vitro” of more than 200 µg/mL. The “Mean wound size (% of original wound size)” value with corneal epithelial wound is listed as 28.5 ± 19.9%.
